Test results taken from the supplement of paper PMC13380429.

Tests used:
Conditions in all cases: 72 h
[1] = system: Caco-2; assay: drug sensitivity score (DSS) for viability; higher = more toxic; extreme values may be limits of the assay
[2] = system: U2OS; assay: as above
[3] = system: Calu-3; assay: as above
[4] = system: HepG2; assay: as above
[5] = system: Caco-2; assay: relative viability EC50 (midpoint between 100% and the lowest measured viability); higher = less toxic
[6] = system: U2OS; assay: as above
[7] = system: Calu-3; assay: as above
[8] = system: HepG2; assay: as above
[9] = system: Caco-2; assay: cell viability relative to DMSO; higher = less toxic
[10] = system: U2OS; assay: as above
[11] = system: Calu-3; assay: as above
[12] = system: HepG2; assay: as above
[13] = system: Vero E6; assay: drug sensitivity score (DSS) for viability; higher = more toxic; extreme values may be limits of the assay
[14] = system: Vero E6; assay: relative viability EC50 (midpoint between 100% and the lowest measured viability); higher = less toxic
[15] = system: Vero E6; assay: cell viability relative to DMSO; higher = less toxic

Row | Compound | drug sensitivity score [1] | drug sensitivity score [2] | drug sensitivity score [3] | drug sensitivity score [4] | relative viability EC50 [5] [µM] | relative viability EC50 [6] [µM] | relative viability EC50 [7] [µM] | relative viability EC50 [8] [µM] | cell viability ([9]; 1 nM) [%] | cell viability ([9]; 10 nM) [%] | cell viability ([9]; 100 nM) [%] | cell viability ([9]; 1000 nM) [%] | cell viability ([9]; 10000 nM) [%] | cell viability ([10]; 1 nM) [%] | cell viability ([10]; 10 nM) [%] | cell viability ([10]; 100 nM) [%] | cell viability ([10]; 1000 nM) [%] | cell viability ([10]; 10000 nM) [%] | cell viability ([11]; 1 nM) [%] | cell viability ([11]; 10 nM) [%] | cell viability ([11]; 100 nM) [%] | cell viability ([11]; 1000 nM) [%] | cell viability ([11]; 10000 nM) [%] | cell viability ([12]; 1 nM) [%] | cell viability ([12]; 10 nM) [%] | cell viability ([12]; 100 nM) [%] | cell viability ([12]; 1000 nM) [%] | cell viability ([12]; 10000 nM) [%] | drug sensitivity score [13] | relative viability EC50 [14] [µM] | cell viability ([15]; 1 nM) [%] | cell viability ([15]; 10 nM) [%] | cell viability ([15]; 100 nM) [%] | cell viability ([15]; 1000 nM) [%] | cell viability ([15]; 10000 nM) [%]
1 | C[C@H](N)C(=O)N[C@@]1(C(=O)O)C[C@@H](Sc2nnc[nH]2)[C@H]2[C@H](C(=O)O)[C@H]21 | 0 | 0 | 0 | 0 | > 10 | > 10 | > 10 | > 10 | 108 | 100 | 103 | 98.9 | 101 | 105 | 96.9 | 105 | 100 | 104 | 102 | 92.6 | 96.1 | 114 | 110 | 101 | 94.7 | 99.6 | 110 | 91 | – | – | – | – | – | – | –
2 | Cc1cc(C)c(CNC(=O)c2cc(-c3ccc(CN4CCOCC4)cc3)cc3c2cnn3C2CCCC2)c(=O)[nH]1 | 0 | 0 | 0 | 0.5 | > 10 | > 10 | > 10 | > 10 | 102 | 94.2 | 96.4 | 91.1 | 92 | 99 | 94.5 | 101 | 94.4 | 98.7 | 98 | 96.9 | 104 | 92 | 96.3 | 108 | 102 | 100 | 97.3 | 85.3 | – | – | – | – | – | – | –
3 | Cc1cc(C)c(N)c(C#Cc2cccc(F)c2)n1 | 2.2 | 0 | 0 | 0.7 | – | > 10 | > 10 | > 10 | 99.6 | 88.9 | 101 | 93.2 | 71.6 | 102 | 97.5 | 102 | 97.3 | 90.9 | 104 | 102 | 95.9 | 102 | 87.7 | 95.3 | 98.4 | 81.6 | 88.1 | 90.7 | 0 | > 10 | 99.5 | 106 | 98.6 | 103 | 90.8
4 | Cc1cnc(NC(=O)Nc2cc(Br)c(C)cc2OC[C@@H]2CNCCO2)cn1 | 5.4 | 10.2 | 4.5 | 8.6 | 1.73 | 1.2 | – | 0.764 | 102 | 94.7 | 96.9 | 87.5 | 37.8 | 100 | 99.2 | 98 | 62.2 | 4.8 | 90.7 | 106 | 102 | 76.9 | 63 | 106 | 104 | 97.9 | 59.1 | 33.7 | 1.7 | – | 101 | 105 | 102 | 97.2 | 71.1
5 | Cc1nc2ccc(-n3ncc(C(=O)c4cc5ccccc5[nH]4)c3N)cc2[nH]1 | 0.8 | 1.9 | 0.7 | 0.7 | > 10 | > 10 | > 10 | > 10 | 100 | 94.5 | 92.9 | 86.4 | 89.3 | 99 | 94.5 | 97.8 | 84.1 | 84.3 | 100 | 86.9 | 98.4 | 87.6 | 84.7 | 94.6 | 99 | 87.3 | 104 | 76.2 | 2.2 | – | 96.5 | 96 | 93.6 | 89.4 | 69
6 | Nc1nc(NCCc2ccc(O)cc2)nc2nc(-c3ccco3)nn12 | 0.9 | 0 | 0 | 9.7 | – | > 10 | > 10 | 0.648 | 97.2 | 94.5 | 103 | 104 | 72.5 | 99.5 | 103 | 102 | 103 | 94.5 | 96.1 | 110 | 97.3 | 98.2 | 106 | 109 | 98.6 | 103 | 49.2 | 32.2 | 0 | > 10 | 95.1 | 95.3 | 98.1 | 94.6 | 95
7 | FC(F)(F)Oc1ccc2nc(-c3ccc(OCCOCCOc4ccc(-c5nc6ccc(OC(F)(F)F)cc6[nH]5)nc4)cn3)[nH]c2c1 [AI-10-49] | 4.2 | 1.5 | 0 | 8.2 | – | > 10 | > 10 | 1.37 | 95.2 | 95.4 | 90.9 | 82 | 56.7 | 98.5 | 98.6 | 101 | 90.5 | 80.7 | 109 | 95.7 | 98.2 | 98.3 | 93.3 | 94.7 | 93.6 | 103 | 74.6 | 18.7 | 5.6 | – | 102 | 97 | 93.3 | 72.8 | 56.2
8 | c1ccc(-c2oc3ncnc(NC[C@@H]4CCCO4)c3c2-c2ccccc2)cc1 [AIM-100] | 1 | 0 | 1.3 | 0 | – | > 10 | – | > 10 | 115 | 92.6 | 96.6 | 104 | 71.3 | 103 | 102 | 105 | 101 | 95.5 | 106 | 92.2 | 96.6 | 97.7 | 74.7 | 83.4 | 98.6 | 99.8 | 97.4 | 95.6 | 0 | > 10 | 90.2 | 98.6 | 96.6 | 87.2 | 95.9
9 | COCCOc1cnc2ccn([C@H](C)c3nnc4c(F)cc(-c5cnn(C)c5)cn34)c(=O)c2c1 [AMG-337] | 0 | 0 | 0 | 0 | > 10 | > 10 | > 10 | > 10 | 104 | 103 | 92.9 | 101 | 97.2 | 93 | 99.1 | 102 | 98 | 100 | 101 | 89 | 98.4 | 114 | 95.2 | 100 | 102 | 99.2 | 91.5 | 93.5 | – | – | – | – | – | – | –
10 | C#CC[C@H](c1nc2cc(Cl)ccc2c(=O)n1Nc1ccccc1)N(CCCN)C(=O)c1cccc(Cl)c1F [ARQ-621] | 3.1 | 4.2 | 2.1 | 8.5 | – | 2.23 | > 10 | 0.929 | 101 | 96.6 | 93.6 | 81.7 | 73 | 103 | 98.9 | 101 | 93.4 | 42.3 | 105 | 101 | 104 | 86.7 | 78 | 93.7 | 100 | 94.5 | 62.2 | 26.6 | 2.3 | – | 102 | 100 | 96.2 | 101 | 54.9
11 | CNC(=O)CN1CCC(Oc2cc3c(Nc4cccc(Cl)c4F)ncnc3cc2OC)CC1 [AZD8931] | 4.6 | 0.1 | 18.2 | 0.5 | – | > 10 | 0.0843 | > 10 | 96.5 | 93.7 | 90.2 | 77.7 | 65.5 | 95.4 | 94.8 | 93.6 | 89.6 | 87.9 | 109 | 80.5 | 60.7 | 33.8 | 22.5 | 106 | 95.7 | 87.8 | 95.2 | 85.2 | 10.2 | 0.233 | 97.2 | 97.7 | 78.3 | 58.5 | 42.1
12 | Cc1cc(-c2nc(-c3ccc(OC(F)(F)F)cc3)no2)nn1Cc1ccnc(N2CCN(C3CC3)CC2)c1 [BAY-87-2243] | 8 | 6.5 | 0.2 | 31.4 | – | – | > 10 | 0.0071 | 99.4 | 99 | 73.7 | 74.7 | 71.1 | 97.3 | 95.3 | 81.5 | 73.5 | 66.6 | 98.5 | 94.4 | 92.9 | 87.7 | 92 | 93.1 | 50.4 | 20.8 | 17.8 | 18.7 | 0.4 | > 10 | 95.8 | 98.8 | 94.3 | 91 | 85.1
13 | O=C1c2ccccc2CCC1CNCCc1ccc(O)cc1 (centres undefined) [BE-2254] | 0 | 0 | 0 | 3 | > 10 | > 10 | > 10 | 3.45 | 104 | 100 | 99.5 | 104 | 98 | 95.8 | 97.3 | 100 | 99.3 | 95.5 | 106 | 93.3 | 95.7 | 101 | 96.2 | 114 | 96 | 96.7 | 103 | 39.1 | – | – | – | – | – | – | –
14 | COc1ccc2c(c1)c(CC(=O)N1CCOCC1)c(C)n2C(=O)c1ccc(Cl)cc1 [BML-190] | 0.2 | 0 | 0 | 0.5 | > 10 | > 10 | > 10 | > 10 | 91.4 | 109 | 96.7 | 101 | 85.6 | 96.2 | 101 | 106 | 99.3 | 112 | 106 | 106 | 92.7 | 108 | 96.9 | 102 | 102 | 104 | 88 | 94.8 | – | – | – | – | – | – | –
15 | Cc1nc(C#Cc2ccnc(Cl)c2)c(C)n1-c1ccc(OC(F)(F)F)cc1 [CTEP] | 4 | 2.1 | 0 | 0.2 | – | – | > 10 | > 10 | 93.9 | 107 | 86.9 | 84.6 | 55.8 | 94.6 | 98.2 | 95.5 | 100 | 58.2 | 99.2 | 101 | 93 | 96.5 | 92.3 | 100 | 88.6 | 100 | 91.5 | 85.1 | 0 | > 10 | 102 | 100 | 91.8 | 102 | 94.5
